Experimental data taken from ChEMBL document CHEMBL3217601, “Optimized glucuronidation of dual pharmacology -2 agonists/M3 antagonists for the treatment of COPD” (Medchemcomm, 2011).

Tests used:
[1] = target: Beta-1 adrenergic receptor (Homo sapiens, UniProt P08588); test: Agonist activity at beta-1 adrenoceptor (unknown origin)
[2] = target: Muscarinic acetylcholine receptor M3 (Homo sapiens, UniProt P20309); test: Displacement of [3H]-N-methyl scopolamine from human cloned muscarinic M3 receptor
[3] = Drug metabolism of the compound in human liver microsomes assessed as glucuronidation in absence of NADPH and presence of microsomal activator Brij58 and UDPGA
[4] = target: Beta-2 adrenergic receptor (Homo sapiens, UniProt P07550); test: Agonist activity at human beta-2 adrenoceptor expressed in CHO cells assessed as stimulation of intracellular cAMP production; assay type: functional, cell-based
[5] = Intrinsic clearance in human liver microsomes assessed as glucuronidation in absence of NADPH and presence of microsomal activator Brij58 and UDPGA

Sequence of Beta-2 adrenergic receptor (P07550 whole entry): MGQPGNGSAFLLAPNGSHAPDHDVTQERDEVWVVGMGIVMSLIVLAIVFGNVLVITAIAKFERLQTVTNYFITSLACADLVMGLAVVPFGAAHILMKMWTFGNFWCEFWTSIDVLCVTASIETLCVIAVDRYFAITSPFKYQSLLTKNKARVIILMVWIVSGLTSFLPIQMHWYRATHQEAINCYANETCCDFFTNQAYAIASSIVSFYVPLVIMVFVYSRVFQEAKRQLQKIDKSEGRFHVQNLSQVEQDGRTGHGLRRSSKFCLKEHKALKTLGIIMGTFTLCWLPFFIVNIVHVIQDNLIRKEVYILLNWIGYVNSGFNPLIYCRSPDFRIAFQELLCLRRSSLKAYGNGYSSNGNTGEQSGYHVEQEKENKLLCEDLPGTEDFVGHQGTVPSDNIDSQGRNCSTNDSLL
Sequence of Muscarinic acetylcholine receptor M3 (P20309 whole entry): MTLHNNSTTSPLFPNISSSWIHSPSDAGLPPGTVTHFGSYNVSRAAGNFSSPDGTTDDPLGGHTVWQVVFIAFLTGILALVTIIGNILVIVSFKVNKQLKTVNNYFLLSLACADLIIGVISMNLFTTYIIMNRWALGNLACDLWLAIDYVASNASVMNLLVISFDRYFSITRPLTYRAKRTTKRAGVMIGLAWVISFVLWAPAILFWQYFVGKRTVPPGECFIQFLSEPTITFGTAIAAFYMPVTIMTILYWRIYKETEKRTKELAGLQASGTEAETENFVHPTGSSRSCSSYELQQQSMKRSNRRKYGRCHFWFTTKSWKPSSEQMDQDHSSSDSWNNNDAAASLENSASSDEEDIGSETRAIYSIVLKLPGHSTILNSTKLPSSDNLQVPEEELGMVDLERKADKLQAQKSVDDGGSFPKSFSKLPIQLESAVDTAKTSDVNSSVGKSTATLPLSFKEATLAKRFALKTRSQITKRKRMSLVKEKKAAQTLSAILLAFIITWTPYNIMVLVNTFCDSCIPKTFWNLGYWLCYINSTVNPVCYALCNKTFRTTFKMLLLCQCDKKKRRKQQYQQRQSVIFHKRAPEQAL
Sequence of Beta-1 adrenergic receptor (P08588 whole entry): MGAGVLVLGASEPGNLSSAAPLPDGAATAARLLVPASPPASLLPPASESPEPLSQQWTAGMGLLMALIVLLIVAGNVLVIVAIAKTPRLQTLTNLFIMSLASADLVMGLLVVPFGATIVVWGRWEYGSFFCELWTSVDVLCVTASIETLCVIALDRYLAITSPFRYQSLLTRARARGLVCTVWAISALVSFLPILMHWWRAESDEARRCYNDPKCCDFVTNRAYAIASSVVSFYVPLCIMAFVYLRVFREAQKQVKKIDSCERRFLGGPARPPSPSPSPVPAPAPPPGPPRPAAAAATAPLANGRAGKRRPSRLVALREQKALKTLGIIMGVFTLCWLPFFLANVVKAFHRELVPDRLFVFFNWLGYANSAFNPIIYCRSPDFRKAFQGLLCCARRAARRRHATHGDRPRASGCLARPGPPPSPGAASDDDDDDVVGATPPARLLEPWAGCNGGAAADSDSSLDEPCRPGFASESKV

| Compound | EC50 [1] [nM] | Ki [2] [nM] | microsomal CLint [3] [µL/min/mg] | EC50 [4] [nM] | microsomal CLint [5] [µL/min/mg] |
| --- | --- | --- | --- | --- | --- |
| CS(=O)(=O)Nc1cc([C@@H](O)CNCCCCCCCCN2CCC(OC(=O)Nc3ccccc3-c3ccc(O)c(Cl)c3)CC2)ccc1O | > 10000 | 1.1 | 24 | 20 | 17 |
| Cc1ccc(NC(=O)OC2CCN(CCCCCCCCCNC[C@H](O)c3ccc(O)c(NS(C)(=O)=O)c3)CC2)c(-c2ccc(O)c(Cl)c2)c1 | > 10000 | 4.8 | 19 | – | 22 |
| Cc1ccc(-c2ccc(O)c(Cl)c2)c(NC(=O)OC2CCN(CCCCCCCCCNC[C@H](O)c3ccc(O)c(NS(C)(=O)=O)c3)CC2)c1 | > 10000 | 2 | 6 | 14 | 29 |
| CS(=O)(=O)Nc1cc([C@@H](O)CNCCCCCCCCCN2C[C@H]3C[C@@]3(COC(=O)Nc3ccccc3-c3ccc(O)c(Cl)c3)C2)ccc1O | > 10000 | 4.3 | 28 | 17 | 49 |
| CS(=O)(=O)Nc1cc([C@@H](O)CNCCCCCCCCCCN2CCC(OC(=O)Nc3ccccc3-c3ccc(O)c(Cl)c3)CC2)ccc1O | > 10000 | 2 | 22 | 21 | 34 |
| O=C(Nc1ccccc1-c1ccccc1)OC1CCN(CCCCCCCCCNC[C@H](O)c2ccc(O)c3[nH]c(=O)ccc23)CC1 | > 10000 | – | – | – | – |
| CS(=O)(=O)Nc1cc([C@@H](O)CNCCCCCCCCCN2CCC(OC(=O)Nc3ccccc3-c3cc(F)cc(F)c3O)CC2)ccc1O | > 10000 | 22 | < 3.5 | 102 | 20 |
| CS(=O)(=O)Nc1cc([C@@H](O)CNCCCCCCCCCN2CCC(OC(=O)Nc3ccccc3-c3cccc(F)c3O)CC2)ccc1O | > 10000 | 10 | < 2 | – | – |
| CS(=O)(=O)Nc1cc([C@@H](O)CNCCCCCCCCCN2CC[C@@H](OC(=O)Nc3ccccc3-c3ccc(O)c(Cl)c3)C2)ccc1O | > 10000 | 9.2 | 51 | 24 | 39 |
| CS(=O)(=O)Nc1cc([C@@H](O)CNCCCCCCCCCN2CCC(OC(=O)Nc3ccccc3-c3ccc(F)cc3O)CC2)ccc1O | > 10000 | 26 | < 2 | – | 8.8 |
| CS(=O)(=O)Nc1cc([C@@H](O)CNCCCCCCCCCN2CCC(OC(=O)Nc3ccc(F)cc3-c3ccc(O)c(Cl)c3)CC2)ccc1O | > 10000 | 1.1 | 17 | 23 | 25 |
| CS(=O)(=O)Nc1cc([C@@H](O)CNCCCCCCCCCN2C[C@@H]3[C@@H](COC(=O)Nc4ccccc4-c4ccc(O)c(Cl)c4)[C@@H]3C2)ccc1O | > 10000 | 1.3 | 13 | 42 | 7 |
| CS(=O)(=O)Nc1cc([C@@H](O)CNCCCCCCCCCN2CCC(OC(=O)Nc3ccccc3-c3ccc(O)cc3)CC2)ccc1O | > 10000 | 2.2 | 4 | 26 | 20 |
| CS(=O)(=O)Nc1cc([C@@H](O)CNCCCCCCCCCN2C3CCC2CC(OC(=O)Nc2ccccc2-c2ccc(O)c(Cl)c2)C3)ccc1O (some centres not stated) | > 10000 | 8.9 | 7.8 | 23 | 8 |
